“And” between values parts separate entries of the source, which are not always exact repeats. Identical values can stand only once. Like-named read-outs stand apart in the source and are kept apart here.
Legend:
lung cancer cell = experiment: Summary of the effect on lung cancer cell (A549, H1650); format: cell-based; details: lung cancer cell (mean of A549 and H1650 averages), 72 hours, read-out: Inhibitory effect
Method: (§1) Removing the original culture medium from 96-well plate. Then add 100 μl of commercially drug at a concentration of 10 μM per well. After 72 hours, add the diluted WST-1 reagent to the well with 100 μl/well, and the diluted WST-1 reagent was acquired from the dilution of 9:1 medium and WST-1 stock reagent. Finally, the total volume of each well was 200 μl/well. Culture the 96-well plate at 37° C. for 30 to 90 minutes. Detecting and calculate the survival rate of each cancer cells with an ELISA reader at OD450 nm.

[1] = tested on: MDA-MB-231 (Mammary Gland, Adenocarcinoma); experiment: Cell viability analysis (WST-1), breast cancer cell line MDA-MB-231; format: cell-based; details: Homo sapiens
Method: (§2) The cell numbers were counted and reseed as 2×10^6 in cell culture plate/flask. Then, the culture medium was added to a volume of 10 ml, and the cells were cultured for 2-3 days. Then, the cells were suspended for loading into 96-well plates. The cell number was 3000/well and the volume of the culture medium was 100 μl each well.
as §1

[2] = tested on: NIH-OVCAR-3 (ovarian cancer cell line); experiment: Cell viability analysis (WST-1), ovarian cancer cell line NIH-OVCAR-3; format: cell-based; details: Homo sapiens
Method: as §2, §1

[3] = tested on: gastric cancer cells (AGS) subcutaneous tumor; experiment: Animal model test of gastric cancer: tumor size; format: in vivo, mice (BALB/cAnN.Cg-Foxn1nu/CrlNarl); details: for Tumor volume growth, average / tumor volume, average: group average; for Tumor volume growth / tumor longest length / tumor volume / tumor width: individual mice A, B, C
Method: In this invention, the female mice were (BALB/cAnN.Cg-Foxn1^nu/CrlNarl) purchased from National Laboratory Animal Center (Taiwan)). The weight of the mice were 21±1 g. These mice were subcutaneously injected with gastric cancer cells (AGS) and then put these mice into different cages at random. The drug test experiment was divided into three groups, include “control group”, “low dose group (100 mg/kg/day)”, and “high dose group (200 mg/kg/day)”. These mice were then injected test drug intraperitoneally once daily […]. The tumor sizes and body weight were measured twice a week. The tumor sizes were measured and calculated by formula: (L×W^2)/2. L represents the tumor longest length. W represents the tumor shortest diameter.

[4] = tested on: MKN-45 (Gastric Adenocarcinoma); experiment: Cell viability analysis (WST-1), gastric cancer cell line MKN-45; format: cell-based; details: Homo sapiens
cervical cancer cell = experiment: Summary of the effect on cervical cancer cell (HeLa, C-33A); format: cell-based; details: cervical cancer cell (mean of HeLa and C-33A averages), 72 hours, read-out: Inhibitory effect
Method: as §1

prostate cancer cell = experiment: Summary of the effect on prostate cancer cell (PC-3, LNCap); format: cell-based; details: Homo sapiens, prostate cancer cell (mean of PC-3 and LNCap averages), 72 hours, read-out: Inhibitory effect
Method: as §1

[5] = tested on: C-33A (Cervical carcinoma); experiment: Cell viability analysis (WST-1), cervical cancer cell line C-33A; format: cell-based; details: Homo sapiens, 72 h
Method: as §2, §1

[6] = tested on: H1650 (lung adenocarcinoma); experiment: Cell viability analysis (WST-1), lung cancer cell line H1650; format: cell-based; details: Homo sapiens
Method: as §2, §1

[7] = tested on: Hep3B (hepatocellular carcinoma); experiment: Cell viability analysis (WST-1), hepatic cancer cell line Hep3B; format: cell-based; details: Homo sapiens
normal cells = experiment: Toxicity to normal cells (overall statement); format: cell-based
[8] = high dose (200 mg/kg/day) i.p. once daily, Fifth measurement
[9] = high dose (200 mg/kg/day) i.p. once daily, First measurement
[10] = high dose (200 mg/kg/day) i.p. once daily, First measurement, 200 mg/kg/day
[11] = high dose (200 mg/kg/day) i.p. once daily, Fourth measurement
[12] = high dose (200 mg/kg/day) i.p. once daily, Second measurement
[13] = high dose (200 mg/kg/day) i.p. once daily, Second measurement, 200 mg/kg/day
[14] = high dose (200 mg/kg/day) i.p. once daily, Third measurement
[15] = high dose (200 mg/kg/day) i.p. once daily, Third measurement, 200 mg/kg/day
[16] = low dose (100 mg/kg/day) i.p. once daily, Fifth measurement
[17] = low dose (100 mg/kg/day) i.p. once daily, Fifth measurement, 100 mg/kg/day
[18] = low dose (100 mg/kg/day) i.p. once daily, First measurement
[19] = low dose (100 mg/kg/day) i.p. once daily, First measurement, 100 mg/kg/day
[20] = low dose (100 mg/kg/day) i.p. once daily, Fourth measurement
[21] = low dose (100 mg/kg/day) i.p. once daily, Fourth measurement, 100 mg/kg/day
[22] = low dose (100 mg/kg/day) i.p. once daily, Second measurement
[23] = low dose (100 mg/kg/day) i.p. once daily, Second measurement, 100 mg/kg/day
[24] = low dose (100 mg/kg/day) i.p. once daily, Third measurement
[25] = low dose (100 mg/kg/day) i.p. once daily, Third measurement, 100 mg/kg/day

SMILES: Oc1ccc(OCc2ccccc2)cc1 [Monobenzone]
- viability at 10 µM (lung cancer cell): 89.8%
- viability at 10 µM ([1]; MDA-MB-231, 72 h, MDA-MB-231, 10 μM, average of 4 tests, read-out: inhibition effect (survival rate of cells), average): 80.1%
- viability at 10 µM ([1]; MDA-MB-231, MDA-MB-231, 10 μM, 72 hours, test 0612-10 min, read-out: inhibition effect (survival rate of cells)): 91.3%
- viability at 10 µM ([1]; MDA-MB-231, MDA-MB-231, 10 μM, 72 hours, test 0614-10 min, read-out: inhibition effect (survival rate of cells)): 67.6%
- viability at 10 µM ([1]; MDA-MB-231, MDA-MB-231, 10 μM, 72 hours, test 0616-10 min, read-out: inhibition effect (survival rate of cells)): 69.6%
- viability at 10 µM ([1]; MDA-MB-231, MDA-MB-231, 10 μM, 72 hours, test 0619-10 min, read-out: inhibition effect (survival rate of cells)): 92%
- viability at 10 µM ([2]; OVCAR-3, 72 h, NIH-OVCAR-3, 10 μM, average of 4 tests, read-out: inhibition effect (survival rate of cells), average): 91.5%
- viability at 10 µM ([2]; OVCAR-3, NIH-OVCAR-3, 10 μM, 72 hours, test 7-3-30 min, read-out: inhibition effect (survival rate of cells)): 88.3%
- viability at 10 µM ([2]; OVCAR-3, NIH-OVCAR-3, 10 μM, 72 hours, test 7-4-30 min, read-out: inhibition effect (survival rate of cells)): 96.6%
- viability at 10 µM ([2]; OVCAR-3, NIH-OVCAR-3, 10 μM, 72 hours, test 7-7-30 min, read-out: inhibition effect (survival rate of cells)): 88.3%
- viability at 10 µM ([2]; OVCAR-3, NIH-OVCAR-3, 10 μM, 72 hours, test −4-30 min, read-out: inhibition effect (survival rate of cells)): 92.7%
- inhibition effect on tumor cells (in words) ([3]; both low dose (100 mg/kg/day) and high dose (200 mg/kg/day), FIG. 2): significant inhibition effect on tumor cells
- Tumor volume growth, average [3, 8]: 0 mm3
- tumor volume, average [3, 8]: 0 mm3
- Tumor volume growth [3, 8]: 0 mm3
- tumor longest length [3, 8]: 0 mm
- tumor volume [3, 8]: 0 mm3
- tumor width [3, 8]: 0 mm
- Tumor volume growth, average [3, 9]: 25.67 mm3
- tumor volume, average [3, 9]: 25.67 mm3
- Tumor volume growth [3, 10]: 18 mm3 and 27 mm3 and 32 mm3
- tumor longest length [3, 10]: 4 mm (2×) and 6 mm
- tumor volume [3, 10]: 18 mm3 and 27 mm3 and 32 mm3
- tumor width [3, 10]: 3 mm (2×) and 4 mm
- Tumor volume growth, average [3, 11]: −50 mm3
- tumor volume, average [3, 11]: 0 mm3
- tumor longest length [3, 11]: 0 mm
- tumor volume [3, 11]: 0 mm3
- tumor width [3, 11]: 0 mm
- Tumor volume growth ([3]; high dose (200 mg/kg/day) i.p. once daily, Fourth measurement, 200 mg/kg/day): −87.5 mm3 and −62.5 mm3 and 0 mm3
- Tumor volume growth, average [3, 12]: 57.67 mm3
- tumor volume, average [3, 12]: 83.33 mm3
- tumor width [3, 12]: 5 mm
- Tumor volume growth [3, 13]: 69.5 mm3 and 48 mm3 and 55.5 mm3
- tumor longest length [3, 13]: 7 mm (2×) and 6 mm
- tumor volume [3, 13]: 87.5 mm3 (2×) and 75 mm3
- Tumor volume growth, average [3, 14]: −33.3333 mm3
- tumor volume, average [3, 14]: 50 mm3
- Tumor volume growth [3, 15]: 0 mm3 and −12.5 mm3 and −87.5 mm3
- tumor longest length [3, 15]: 7 mm and 5 mm and 0 mm
- tumor volume [3, 15]: 87.5 mm3 and 62.5 mm3 and 0 mm3
- tumor width [3, 15]: 5 mm (2×) and 0 mm
- effect on tumor volume growth (in words) ([3]; high dose (200 mg/kg/day), FIG. 3): effectively slow down the tumor volume growth, and can also reduce the tumor volume
- Tumor volume growth, average [3, 16]: 2.667 mm3
- tumor volume, average [3, 16]: 22 mm3
- Tumor volume growth [3, 17]: 0 mm3 (2×) and 8 mm3
- tumor longest length [3, 17]: 4 mm and 6 mm and 0 mm
- tumor volume [3, 17]: 18 mm3 and 48 mm3 and 0 mm3
- tumor width [3, 17]: 3 mm and 4 mm and 0 mm
- Tumor volume growth, average [3, 18]: 176.3333 mm3
- tumor volume, average [3, 18]: 176.3333 mm3
- Tumor volume growth [3, 19]: 256 mm3 and 147 mm3 and 126 mm3
- tumor longest length [3, 19]: 8 mm and 6 mm and 7 mm
- tumor volume [3, 19]: 256 mm3 and 147 mm3 and 126 mm3
- tumor width [3, 19]: 8 mm and 7 mm and 6 mm
- Tumor volume growth, average [3, 20]: −88 mm3
- tumor volume, average [3, 20]: 19.33 mm3
- Tumor volume growth [3, 21]: −108 mm3 and −68 mm3 and −88 mm3
- tumor longest length [3, 21]: 4 mm and 5 mm and 0 mm
- tumor volume [3, 21]: 18 mm3 and 40 mm3 and 0 mm3
- tumor width [3, 21]: 3 mm and 4 mm and 0 mm
- Tumor volume growth, average [3, 22]: −77.5 mm3
- tumor volume, average [3, 22]: 98.83 mm3
- Tumor volume growth [3, 23]: −130 mm3 and −39 mm3 and −63.5 mm3
- tumor longest length [3, 23]: 7 mm and 6 mm and 5 mm
- tumor volume [3, 23]: 126 mm3 and 108 mm3 and 62.5 mm3
- tumor width [3, 23]: 6 mm (2×) and 5 mm
- Tumor volume growth, average [3, 24]: 0 mm3
- tumor volume, average [3, 24]: 98.83 mm3
- Tumor volume growth [3, 24]: 0 mm3
- tumor longest length [3, 25]: 7 mm and 6 mm and 5 mm
- tumor volume [3, 25]: 126 mm3 and 108 mm3 and 62.5 mm3
- tumor width [3, 25]: 6 mm (2×) and 5 mm
- viability at 10 µM ([4]; MKN-45, 72 h, MKN-45, 10 μM, average of 4 tests, read-out: inhibition effect (survival rate of cells), average): 97.2%
- viability at 10 µM ([4]; MKN-45, MKN-45, 10 μM, 72 hours, test 0510-10 min, read-out: inhibition effect (survival rate of cells)): 89.2%
- viability at 10 µM ([4]; MKN-45, MKN-45, 10 μM, 72 hours, test 0512-10 min, read-out: inhibition effect (survival rate of cells)): 107%
- viability at 10 µM ([4]; MKN-45, MKN-45, 10 μM, 72 hours, test 0517-10 min, read-out: inhibition effect (survival rate of cells)): 91.3%
- viability at 10 µM (cervical cancer cell): 71.2%
- viability at 10 µM (prostate cancer cell): 65.2%
- viability at 10 µM ([5]; average of 4 tests, read-out: inhibition effect (survival rate of cells), average): 62.3%
- viability at 10 µM ([5]; test 1, read-out: inhibition effect (survival rate of cells)): 57.9%
- viability at 10 µM ([5]; test 2, read-out: inhibition effect (survival rate of cells)): 66.2%
- viability at 10 µM ([5]; test 3, read-out: inhibition effect (survival rate of cells)): 61%
- viability at 10 µM ([5]; test 4, read-out: inhibition effect (survival rate of cells)): 64.3%
- viability at 10 µM ([6]; NCI-H1650, 72 h, H1650, 10 μM, average of 4 tests, read-out: inhibition effect (survival rate of cells), Average): 86.3%
- viability at 10 µM ([6]; NCI-H1650, H1650, 10 μM, 72 hours, test 1-10 min, read-out: inhibition effect (survival rate of cells)): 90.1%
- viability at 10 µM ([6]; NCI-H1650, H1650, 10 μM, 72 hours, test 2-20 min, read-out: inhibition effect (survival rate of cells)): 66.6%
- viability at 10 µM ([6]; NCI-H1650, H1650, 10 μM, 72 hours, test 3-20 min, read-out: inhibition effect (survival rate of cells)): 86.7%
- viability at 10 µM ([6]; NCI-H1650, H1650, 10 μM, 72 hours, test 4-20 min, read-out: inhibition effect (survival rate of cells)): 102%
- viability at 10 µM ([7]; 72 h, average of 4 tests, read-out: inhibition effect (survival rate of cells), average): 106%
- viability at 10 µM ([7]; 72 hours, test 0612-20 min, read-out: inhibition effect (survival rate of cells)): 111%
- viability at 10 µM ([7]; 72 hours, test 0614-20 min, read-out: inhibition effect (survival rate of cells)): 116%
- viability at 10 µM ([7]; 72 hours, test 0616-20 min, read-out: inhibition effect (survival rate of cells)): 96.8%
- toxicity to normal cells (in words) (normal cells): no toxicity or had little toxicity to normal cells

— US10098852B2 (LAUNX BIOMEDICAL CO., LTD., priority 2014, dated 2018)
